Reference: article PMC8708274, “Unveiling the Membrane and Cell Wall Action of Antimicrobial Cyclic Lipopeptides: Modulation of the Spectrum of Activity” (Pharmaceutics, 2021)
Read-outs that look alike come from different tables or passages of the source. Positions of bridges follow the written chain, without caps; N, C: chain ends. Non-standard residues stand in square brackets, D forms with d. Residues, ends and D or L forms follow the SMILES beside them. *: point of attachment. dAoc(2) = CCCCCC[C@@H](N)C(=O)O; Heptanoyl = CCCCCCC(=O)*; Nle = CCCC[C@H](N)C(=O)O; Dab = NCC[C@H](N)C(=O)O

How the values were obtained:
[1] = tested on: Escherichia coli ATTC 25922; type: cell-based
[2] = tested on: Pseudomonas aeruginosa ATTC 27853; type: cell-based
[3] = tested on: Staphylococcus aureus ATTC 25923; type: cell-based
[4] = Kinetics of insertion into monolayers; type: binding, Salmonella enterica serotype Minnesota Re 595; details: initial pressure 32 mN·m^−1, peptide 0.48 μM, 25 min after injection, 10 mM Tris pH 7.4, 25 °C, average of three independent experiments (error < 10%)
[5] = Kinetics of insertion into monolayers; type: binding; details: 25 min after injection, 10 mM Tris pH 7.4, 25 °C, average of three independent experiments (error < 10%)
ANTS/DPX vesicle leakage = details: 0.9 µM peptide (0.8% peptide mol fraction), lipid 107 µM, 25 °C, 10 mM Tris pH 7.4, ANTS fluorescence
Description: Large unilamellar vesicles (LUVs) of POPG, POPE/POPG (6:4), or POPC, alone or with the fluorescently labeled phospholipids NBD-PE or Rh-PE, were prepared by the evaporation of a mixture of the lipids and probes in CHCl3. The solvent was removed by a gentle stream of nitrogen gas followed by overnight storage under vacuum. The dried films were hydrated with Tris 10 mM pH 7.4 to the desired final lipid concentration and then sonicated in a bath type sonicator (Lab Supplies, Hickesville, NY, Model G112SPIT) until a clear dispersion was obtained (typically 3–5 min). […] The average diameter was determined by dynamic light scattering with a Malvern II-C Autosizer, with a z-diameter between 111 and 117 nm, and a polydispersity of 0.1. […] Moreover, they contained 0.2% Rh-PE for monitoring the fluorescence before and after the separation of the unencapsulated material, which was carried out by gel filtration on a Sephadex G-50 column eluted with 10 mM Tris 80 mM NaCl. In this way, the final lipid concentration was calculated taking into account the loss of lipid and the dilution of the sample.
To assess the leakage of co-encapsulated ANTS and DPX vesicles due to their interaction with peptides, fluorescence measurements were carried out at 25 °C in 1.5 mL 10 mM Tris buffer pH 7.4 on a SLM-Aminco AB-2 spectrofluorimeter with constant stirring. […]

P. aeruginosa = assay: Transmission electron microscopy of treated bacteria; type: cell-based, Pseudomonas aeruginosa; details: 1xMIC, 2 h, room temperature, tryptone water
Description: (§1) Then, 500 µL of this culture were added to 50 mL of tryptone water for a concentration of ≈10^8 bacteria·mL^−1. Aliquots of 10 mL were incubated with the lipopeptide at the desired concentration for 2 h at room temperature, and bacterial cells were collected by centrifugation (12,857 g, 20 min). Samples were fixed with 2.5% glutaraldehyde in phosphate buffer for 2 h at 4 °C, washed with the same buffer, and post fixed with 1% osmium tetroxide in buffer containing 0.8% potassium ferricyanide at 4 °C. Then, the samples were dehydrated for 1 h in acetone, infiltrated in a graded series of Epon resin (Ted pella, Inc., Redding, CA, USA) during 2 days, and finally embedded in fresh Epon resin and polymerized at 60 °C during 48 h. Ultrathin sections were obtained using a Leica Ultracut UCT ultramicrotome (Leica, Vienna, Austria) and mounted on Formvar-coated copper grids. Sections were stained with 2% aqueous uranyl acetate and lead citrate and examined in a JEM-1010 electron microscope (Jeol, Tokyo, Japan).

E. coli = assay: as above; type: cell-based, Escherichia coli; details: 1xMIC, 2 h, room temperature, tryptone water
Description: as §1

[6] = broth microdilution, MHB, 5 × 10^5 CFU/mL, overnight 37 °C, triplicate, higher of the three

Structure (SMILES): CCCCCCC(=O)N[C@@H](CCN)C(=O)N[C@H](C(=O)N[C@@H](CCN)C(=O)N[C@H]1CSSC[C@H](C(N)=O)NC(=O)[C@H](CCN)NC(=O)[C@H](CCN)NC(=O)[C@H](CCCC)NC(=O)[C@@H](CCCCCC)NC(=O)[C@H](CCN)NC1=O)[C@@H](C)O [spE-10] (Heptanoyl-[Dab]T[Dab]C[Dab][dAoc(2)][Nle][Dab][Dab][dC]-NH2; disulfide 4-10)
- MIC EC ([1]; ATTC 25922): 6.7 µM
- MIC EC [1, 6]: 8 µg/mL
- MIC PA ([2]; ATTC 27853): 0.84 µM
- MIC PA [2, 6]: 1 µg/mL
- MIC SA ([3]; ATTC 25923): > 27 µM
- MIC SA [3, 6]: > 32 µg/mL
- Increase in surface pressure (Δπ), LPS [4]: 14.8 mN·m^−1
- Increase in surface pressure (Δπ), POPE/POPG ([5]; POPE/POPG 6:4, initial pressure 32 mN·m^−1, peptide 0.48 μM): 8.2 mN·m^−1
- Increase in surface pressure (Δπ), POPC ([5]; initial pressure 32 mN·m^−1, peptide 0.48 μM): 1.8 mN·m^−1
- leakage from PE/PG vesicles (ANTS/DPX vesicle leakage): no detectable leakage
- ultrastructural effect on P. aeruginosa (TEM) (P. aeruginosa): significant rupture of the cell membranes and cytoplasmic clear zones
- ultrastructural effect on E. coli (TEM) (E. coli): formation of intracellular membranous structures and cytoplasmic clear zones
